According to DBAASP:
In brackets after ≈: the same amount, converted by molar mass. Values belong to the compound of their own block, whether it stands above or below them.

Tests used:
Experiment in all cases: ≥ marks a high value that may be exact or a test limit, other limits are often not marked, values filed in µg/mL are converted to µM
[1] = system: Escherichia coli ATCC 25726
[2] = system: Pseudomonas aeruginosa PAO239
[3] = system: Fusobacterium nucleatum NCTC 10562
[4] = system: Enterococcus faecalis NCTC 12697
[5] = system: Stenotrophomonas maltophilia
[6] = system: Pseudomonas aeruginosa ATCC 27853
[7] = system: Acinetobacter baumannii
[8] = system: Streptococcus mutans ATCC 10449
[9] = system: Candida albicans NCTC 3179
[10] = system: Escherichia coli ATCC 25922
[11] = system: Helicobacter pylori ATCC 43504
[12] = system: Staphylococcus aureus ATCC 25923
[13] = system: Staphylococcus aureus ST1065
[14] = system: Enterococcus faecalis ATCC 29212
[15] = system: Staphylococcus aureus NCTC 10788
[16] = system: Staphylococcus aureus ATCC BAA-44
[17] = system: Candida albicans NCYC 1467
[18] = system: Candida parapsilosis ATCC 22019
[19] = system: Escherichia coli ML-35p
[20] = system: Staphylococcus aureus ATCC 43300
[21] = system: Pseudomonas aeruginosa ATCC 9027
[22] = system: Escherichia coli 5509
[23] = system: Escherichia coli 170
[24] = system: Staphylococcus aureus 06-051
[25] = system: Pseudomonas aeruginosa 5106
[26] = system: Enterobacter cloacae 14-262
[27] = system: Acinetobacter baumannii 5821
[28] = system: Escherichia coli 09-280
[29] = system: Enterobacter cloacae 06-267
[30] = system: Staphylococcus aureus 01-001
[31] = system: Pseudomonas aeruginosa 3599
[32] = system: Escherichia coli 09-240
[33] = system: Staphylococcus aureus ATCC 29213
[34] = system: Klebsiella pneumoniae 01-239
[35] = system: Klebsiella pneumoniae 01-252
[36] = system: Staphylococcus carnosus KHS
[37] = system: Bacillus licheniformis X39
[38] = system: Enterococcus faecium 091299
[39] = system: Psychrobacter faecalis X29
[40] = system: Candida albicans ATCC 2002
[41] = system: Rhodococcus rhodochrous X15
[42] = system: Bacillus subtilis ATCC 6633
[43] = system: Staphylococcus aureus ATCC 2592
[44] = system: Pseudomonas fluorescens ATCC 13525

Structure (SMILES): CSCC[C@H](NC(=O)CN)C(=O)N[C@@H](C)C(=O)N[C@@H](CO)C(=O)N[C@@H](CCCCN)C(=O)N[C@@H](C)C(=O)NCC(=O)N[C@@H](CO)C(=O)N[C@H](C(=O)N[C@@H](CC(C)C)C(=O)NCC(=O)N[C@@H](CCCCN)C(=O)N[C@H](C(=O)N[C@@H](C)C(=O)N[C@@H](CCCCN)C(=O)N[C@H](C(=O)N[C@@H](C)C(=O)N[C@@H](CC(C)C)C(=O)N[C@@H](CCCCN)C(=O)N[C@@H](C)C(=O)N[C@@H](C)C(=O)N[C@@H](CC(C)C)C(N)=O)C(C)C)C(C)C)C(C)C [GMASKAGSVLGKVAKVALKAAL]
MIC [1]: 12.5 µM (≈ 25.9 µg/mL) | MIC [2]: 25 µM (≈ 51.7 µg/mL) | MIC [3]: 12.5 µM (≈ 25.9 µg/mL) | MIC [4]: ≥ 100 µM | MIC [5]: 5.66 µM (≈ 11.7 µg/mL) | MIC [6]: 12.5 µM (≈ 25.9 µg/mL) | MIC [7]: 11.3 µM (≈ 23.4 µg/mL) | MIC [8]: 3.1 µM (≈ 6.42 µg/mL) | MIC [9]: ≥ 50 µM | MIC [10]: 25 µM (≈ 51.7 µg/mL) | MIC [11]: 0.483 µM (≈ 1 µg/mL) | MIC [12]: 35.4 µM (≈ 73.2 µg/mL)

Structure (SMILES): CC[C@H](C)[C@H](NC(=O)[C@H](CCCN=C(N)N)NC(=O)[C@H](CC(C)C)NC(=O)[C@H](C)NC(=O)[C@H](CO)NC(=O)CNC(=O)[C@H](CCSC)NC(=O)[C@@H](N)Cc1ccccc1)C(=O)N[C@@H](C)C(=O)N[C@@H](C)C(=O)N[C@@H](CCCCN)C(=O)N[C@H](C(=O)N[C@@H](CC(C)C)C(=O)N1CCC[C@H]1C(=O)N[C@@H](C)C(=O)N[C@@H](C)C(=O)N[C@@H](CC(C)C)C(=O)N[C@H]1CSSC[C@@H](C(=O)O)NC(=O)[C@H](CCCCN)NC(=O)[C@H](CCCCN)NC(=O)[C@H](Cc2ccccc2)NC(=O)[C@H]([C@@H](C)CC)NC(=O)[C@H](CCC(N)=O)NC1=O)C(C)C [FMGSALRIAAKVLPAALCQIFKKC]
MIC [42]: 2.42 µM (≈ 6.25 µg/mL) | MIC [40]: 19.4 µM (≈ 50 µg/mL) | MIC [43]: 2.42 µM (≈ 6.25 µg/mL) | MIC [44]: ≥ 38.8 µM

More lines, in order of falling MIC [12], values ahead:

MIC [13]: ≥ 100 µM | MIC [14]: 100 µM (≈ 180 µg/mL) | MIC [15]: 17.8 µM (≈ 32 µg/mL) | MIC [16]: ≥ 100 µM | MIC [17]: ≥ 71.2 µM | MIC [18]: ≥ 100 µM | MIC [6]: > 100 µM | MIC [10]: > 100 µM | MIC [19]: ≥ 100 µM | MIC [12]: 25 µM (≈ 44.9 µg/mL) | MIC [20]: > 100 µM
Structure (SMILES): CC[C@H](C)[C@H](NC(=O)[C@H](C)NC(=O)[C@H](CO)NC(=O)[C@@H](NC(=O)[C@H](C)NC(=O)[C@@H](NC(=O)[C@@H]1CCCN1C(=O)[C@@H](NC(=O)[C@H](CCSC)NC(=O)CNC(=O)[C@H](CC(C)C)NC(=O)[C@@H](N)CC(C)C)[C@@H](C)CC)C(C)C)[C@@H](C)CC)C(=O)N[C@@H](CO)C(=O)N[C@@H](C)C(=O)N[C@@H](CC(C)C)C(=O)N[C@@H](CO)C(=O)N[C@@H](CCCCN)C(=O)N[C@@H](CC(C)C)C(N)=O [LLGMIPVAISAISALSKL]

MIC [36]: ≥ 150 µM | MIC [37]: ≥ 37.5 µM | MIC [38]: ≥ 150 µM | MIC [39]: 9.5 µM (≈ 31.4 µg/mL) | MIC [40]: 19 µM (≈ 62.8 µg/mL) | MIC [41]: 9.5 µM (≈ 31.4 µg/mL) | MIC [12]: 19 µM (≈ 62.8 µg/mL)
Structure (SMILES): CC[C@H](C)[C@H](NC(=O)[C@H](CC(C)C)NC(=O)[C@H](CC(C)C)NC(=O)[C@H](CC(=O)O)NC(=O)[C@H](CCCCN)NC(=O)[C@@H](NC(=O)[C@@H](NC(=O)CNC(=O)[C@H](CC(C)C)NC(=O)[C@H](CC(C)C)NC(=O)[C@@H](N)CO)[C@@H](C)O)C(C)C)C(=O)NCC(=O)N[C@@H](C)C(=O)NCC(=O)N[C@@H](CCCCN)C(=O)N[C@@H](CO)C(=O)N[C@@H](C)C(=O)N[C@@H](C)C(=O)N[C@@H](CCC(N)=O)C(=O)N[C@@H](CO)C(=O)N[C@H](C(=O)N[C@@H](CC(C)C)C(=O)N[C@@H](CCCCN)C(=O)NCC(=O)N[C@@H](CC(C)C)C(=O)N[C@@H](CO)C(=O)N[C@H]1CSSC[C@@H](C(=O)O)NC(=O)[C@H](CC(=O)O)NC(=O)[C@H](CCCCN)NC(=O)[C@H](CO)NC(=O)[C@H](CC(C)C)NC(=O)[C@H](CCCCN)NC1=O)C(C)C [SLLGTVKDLLIGAGKSAAQSVLKGLSCKLSKDC]

MIC [21]: 2 µM (≈ 2.89 µg/mL) | MIC [22]: ≥ 32 µM | MIC [23]: ≥ 32 µM | MIC [24]: 2 µM (≈ 2.89 µg/mL) | MIC [25]: ≥ 32 µM | MIC [26]: ≥ 32 µM | MIC [27]: 14 µM (≈ 20.2 µg/mL) | MIC [28]: ≥ 32 µM | MIC [29]: ≥ 32 µM | MIC [30]: 2 µM (≈ 2.89 µg/mL) | MIC [31]: ≥ 32 µM | MIC [32]: 30 µM (≈ 43.3 µg/mL) | MIC [6]: > 32 µM | MIC [33]: 4 µM (≈ 5.77 µg/mL) | MIC [34]: ≥ 32 µM | MIC [35]: ≥ 32 µM | MIC [10]: 15 µM (≈ 21.6 µg/mL) | MIC [12]: 1 µM (≈ 1.44 µg/mL)
Structure (SMILES): CC[C@H](C)[C@H](N)C(=O)N[C@@H](Cc1c[nH]c2ccccc12)C(=O)N[C@@H](CO)C(=O)N[C@@H](C)C(=O)N[C@H](C(=O)N[C@@H](Cc1c[nH]c2ccccc12)C(=O)N[C@@H](CO)C(=O)NCC(=O)N[C@H](C(=O)N[C@@H](CCCCN)C(=O)NCC(=O)N[C@@H](CC(C)C)C(=O)N[C@@H](CC(C)C)C(N)=O)[C@@H](C)CC)[C@@H](C)CC [IWSAIWSGIKGLL]
